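In this assay, cells in 96-well plates receive the compound at five concentrations for 48 hours. Endpoints are linearly interpolated between the surrounding concentrations. At the GI50, growth is halved. TGI is the concentration that stops growth completely.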
What was measured:
Assay in all cases: NCI-60 cell line screen, 48 h
SF-539 CNS = system: SF-539 CNS
786-0 renal = system: 786-0 renal
ACHN renal = system: ACHN renal
LOX IMVI melanoma = system: LOX IMVI melanoma
HOP-62 NSCLC = system: HOP-62 NSCLC
SF-295 CNS = system: SF-295 CNS
SW-620 colon = system: SW-620 colon
SN12C renal = system: SN12C renal
NCI-H23 lung = system: NCI-H23 lung
EKVX NSCLC = system: EKVX NSCLC

SMILES	TGI (SF-539 CNS)	TGI (786-0 renal)	TGI (ACHN renal)	TGI (LOX IMVI melanoma)	TGI (HOP-62 NSCLC)	TGI (SF-295 CNS)	TGI (SW-620 colon)	TGI (SN12C renal)	TGI (NCI-H23 lung)	TGI (EKVX NSCLC)	GI50 (SF-539 CNS)	GI50 (786-0 renal)	GI50 (EKVX NSCLC)	GI50 (ACHN renal)	GI50 (LOX IMVI melanoma)	GI50 (HOP-62 NSCLC)	GI50 (SF-295 CNS)	GI50 (SW-620 colon)	GI50 (SN12C renal)	GI50 (NCI-H23 lung)
COC1CC(OS(=O)(=O)c2ccc([N+](=O)[O-])cc2)C(OC(=O)c2ccccc2)C(C)O1 (stereo not drawn)	> 100 µM	> 100 µM	> 100 µM	> 100 µM	> 100 µM	> 100 µM	> 100 µM	> 100 µM	> 100 µM											
CC(C)C1CC[C@@H](C)C[C@@]1(O)CC(N)=O (stereo partly drawn)	> 100 µM	> 100 µM	> 100 µM			> 100 µM	> 100 µM	> 100 µM	> 100 µM	> 100 µM										
COc1ccc2c(c1)c(=O)oc1cc(OC/C(C)=N\O)ccc12	> 100 µM	> 100 µM	> 100 µM	> 100 µM	> 100 µM	> 100 µM	> 100 µM	> 100 µM	> 100 µM	> 100 µM	59.5 µM	> 100 µM	3.38 µM	29.9 µM	> 100 µM	28.7 µM	37.9 µM	> 100 µM	> 100 µM	> 100 µM
COc1cc2ccc(/C=C\[N+](=O)[O-])cc2cc1OC	4.91 µM	3.09 µM	3.2 µM	3.42 µM	16.1 µM	33.8 µM	> 24.6 µM	6.3 µM	6.98 µM	15.5 µM										
CC(=O)OCC1OC(n2cnc(C(N)=S)c2N)C(OC(C)=O)C1OC(C)=O (stereo not drawn)	> 100 µM	> 100 µM	> 100 µM	> 100 µM	> 100 µM	> 100 µM	> 100 µM	> 100 µM	> 100 µM											
CCOC(=O)N1CCN(C=S)CC1	> 100 µM	> 100 µM	> 100 µM	> 100 µM	> 100 µM		> 100 µM	> 100 µM	> 100 µM	> 100 µM										
O=[N+]([O-])O.[Cu+2].[NH-]CC[NH-].[NH-]CC[NH-]	> 10 µM	> 10 µM	> 10 µM	> 10 µM	> 10 µM	> 10 µM	> 10 µM	> 10 µM	> 10 µM	> 10 µM	> 10 µM	> 10 µM	> 10 µM	> 10 µM	> 10 µM	> 10 µM	> 10 µM	> 10 µM	> 10 µM	> 10 µM
COc1cc([C@@H]2OC[C@@H]3C(c4cc(OC)c5c(c4)OCO5)OC[C@@H]32)cc(OC)c1OC (stereo partly drawn)	> 100 µM	> 100 µM	> 100 µM	> 100 µM	> 100 µM	> 100 µM	> 100 µM		> 100 µM	> 100 µM										
Cn1cc(C(=O)NCCC(=N)N)cc1NC(=O)C1=[N+](C)C=C(NC(=O)c2cccc(C(=O)NC3=CC(C(=O)Nc4cc(C(=O)NCCC(=N)N)cn4C)=[N+](C)C3)c2)C1	> 100 µM	> 100 µM	> 100 µM	> 100 µM	> 100 µM	> 100 µM	> 100 µM	> 100 µM	> 100 µM	> 100 µM										
CCC1C2Cc3ccc(O)cc3C1(CC)CCN2C (stereo not drawn)	> 100 µM	> 100 µM	> 100 µM	> 100 µM	> 100 µM	> 100 µM	> 100 µM	> 100 µM	> 100 µM	> 100 µM										
Nc1ccnc(=O)[nH]1	> 100 µM	> 100 µM	> 100 µM	> 100 µM	> 100 µM	> 100 µM	> 100 µM	> 100 µM		> 100 µM										
COc1ccc(-c2cc(=O)[nH]c3c(OC)c4ccccc4c(OC)c23)cc1		> 100 µM	> 100 µM	> 100 µM	> 100 µM		> 100 µM	> 100 µM	> 100 µM	> 100 µM	0.393 µM	0.532 µM	2.87 µM	0.663 µM	0.655 µM	1.47 µM	0.272 µM	0.418 µM	0.612 µM	0.817 µM
COc1ccc(C(=O)c2cc(OC)c(OC)c(OC)c2)cc1OC(=O)CCl	0.0541 µM	> 100 µM	98.7 µM	> 100 µM	> 100 µM	> 100 µM	> 100 µM	> 100 µM	> 100 µM	> 100 µM	< 0.01 µM	0.554 µM	0.832 µM	< 0.0267 µM	< 0.0199 µM	0.224 µM	0.0456 µM	< 0.0208 µM	0.0472 µM	0.0653 µM
O=C1Nc2ccccc2/C1=C/C(=O)c1coc2c1C(=O)c1ccccc1C2=O	> 100 µM	> 100 µM	> 100 µM	> 100 µM		> 100 µM	> 100 µM	> 100 µM	> 100 µM		> 100 µM	> 100 µM		> 100 µM	> 100 µM		> 100 µM	99.6 µM	> 100 µM	> 100 µM
CCCCNc1nc(C#N)c(N)s1	> 100 µM	> 100 µM	> 100 µM	> 100 µM	> 100 µM	> 100 µM	> 100 µM	> 100 µM	> 100 µM											
COc1cc([N+](=O)[O-])c(OC)cc1-c1nc2sc(Cl)cn2c1/C(N)=N/C(=N)N	50.8 µM	5.64 µM	> 100 µM	> 100 µM	17.3 µM	36.7 µM	4.63 µM	4.29 µM	10.8 µM	40.9 µM	4.53 µM	2.33 µM	9.66 µM	> 56.9 µM	4.44 µM	6.32 µM	9.94 µM	2.15 µM	1.91 µM	3.43 µM
O=C(O)C(SC(=S)c1ccc(C(=S)SC(C(=O)O)c2ccccc2)cc1)c1ccccc1 (stereo not drawn)	> 100 µM	> 100 µM	> 100 µM	> 100 µM	> 100 µM	> 100 µM	> 100 µM	> 100 µM	> 100 µM											
CC(C)(C)c1ccc(Oc2nccc(-c3c(-c4ccc(F)cc4)ncn3C3CCNCC3)n2)cc1	8.03 µM	8.12 µM	6.78 µM	7.49 µM	7.88 µM	8.68 µM	7.82 µM	7.06 µM		7.36 µM	4.38 µM	4.22 µM	3.6 µM	3.49 µM	3.43 µM	4.25 µM	4.65 µM	3.96 µM	3.65 µM	
